Results reported in patent US6800642B2, “Antipsychotic aminomethyl derivatives of 7,8-dihydro-2,6,9-trioxa-3-aza-cyclopenta[a]naphthalene” (Wyeth, priority 2001, dated 2004).
Structures can show the parent of a compound that is named as a salt.

tested on: not given; experiment: not given; conditions: not given

melting point | Compound
172 to 174 °C | c1ccc(CCCCNCC2COc3ccc4nocc4c3O2)cc1 (stereo not drawn) (as salt: fumarate) (hydrate or solvate) [Example 7, (7,8-Dihydro-2,6,9-trioxa-3-aza-cyclopenta[a]naphthalen-8-ylmethyl)-(4-phenyl-butyl)-amine]
180 °C | c1ccc(CNCC2COc3ccc4nocc4c3O2)cc1 (stereo not drawn) (as salt: fumarate) [Example 1, Benzyl-(-7,8-dihydro-2,6,9-trioxa-3-aza-cyclopenta[a]naphthalen-8-ylmethyl)-amine]

The next lines start with the molecule.

Compound | melting point
C1=C(c2c[nH]c3ccccc23)CCN(CC2COc3ccc4nocc4c3O2)C1 (stereo not drawn) [Example 3, 8-[4-(1H-Indol-3-yl)-3,6-dihydro-2H-pyridin-1-ylmethyl]-7,8-dihydro-2,6,9-trioxa-3-aza-cyclopenta[a]naphthalene] | 110 °C
Fc1ccc2[nH]cc(CC3CCN(CC4COc5ccc6nocc6c5O4)CC3)c2c1 (stereo not drawn) (as salt: oxalate) [Example 4, 8-[4-(5-Fluoro-1H-indol-3-ylmethyl)-piperidin-1-ylmethyl]-7,8-dihydro-2,6,9-trioxa-3-aza-cyclopenta[a]naphthalene] | 202 to 205 °C
c1ccc2c(c1)CCN(CC1COc3ccc4nocc4c3O1)C2 (stereo not drawn) (as salt: fumarate) [Example 2, 8-(3,4-Dihydro-1H-isoquinolin-2-ylmethyl)-7,8-dihydro-2,6,9-trioxa-3-aza-cyclopenta[a]naphthalene] | 175 to 176 °C
c1ccc2c(CCCNCC3COc4ccc5nocc5c4O3)c[nH]c2c1 (stereo not drawn) (as salt: oxalate) [Example 6, 2,3-Dihydro-N-[3-(1H-indol-3-yl)propyl]-1,4-dioxino[2,3-e][2,1]benzisoxazole-2-methanamine] | 230 °C
O=C(c1ccc(F)cc1)C1CCN(CC2COc3ccc4nocc4c3O2)CC1 (stereo not drawn) (as salt: fumarate) [Example 5, [1-(7,8-Dihydro-2,6,9-trioxa-3-aza-cyclopenta[a]naphthalen-8-ylmethyl)-piperidin-4-yl]-(4-fluoro-phenyl)-methanone] | 204 to 206 °C

biological target: T1, dopamine D2 receptor (Rattus norvegicus, UniProt P61169); experiment: Dopamine D2 receptor affinity, 3H-quinpirole binding in homogenized rat striatal brain tissue; conditions: not given
T1 construct: from tissue; host or cells: rat striatal brain tissue homogenate
T1 sequence (P61169 whole entry): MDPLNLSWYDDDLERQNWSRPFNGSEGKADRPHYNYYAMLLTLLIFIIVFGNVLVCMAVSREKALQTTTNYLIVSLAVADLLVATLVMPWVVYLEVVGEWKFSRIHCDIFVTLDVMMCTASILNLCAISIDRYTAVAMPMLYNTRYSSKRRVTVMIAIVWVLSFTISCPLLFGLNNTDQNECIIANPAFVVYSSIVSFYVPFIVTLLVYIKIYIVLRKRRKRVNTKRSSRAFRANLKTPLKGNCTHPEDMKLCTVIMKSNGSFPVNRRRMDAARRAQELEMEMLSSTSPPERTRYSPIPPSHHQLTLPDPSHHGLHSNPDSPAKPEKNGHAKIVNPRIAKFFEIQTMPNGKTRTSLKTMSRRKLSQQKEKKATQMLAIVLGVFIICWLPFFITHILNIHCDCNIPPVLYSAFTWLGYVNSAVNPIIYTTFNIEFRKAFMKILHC
Protocol: Affinity for the dopamine D2 receptor was established by a modification of the standard experimental test procedure of Seemen and Schaus, European Journal of Pharmacology 203:105-109, 1991, wherein homogenized rat striatal brain tissue is incubated with ^3H-quinpirole and various concentrations of test compound, filtered and washed and counted in a Betaplate scintillation counter.

IC50 | Compound
4.1 nM | c1ccc(CCCCNCC2COc3ccc4nocc4c3O2)cc1 (stereo not drawn) [Example 7, (7,8-Dihydro-2,6,9-trioxa-3-aza-cyclopenta[a]naphthalen-8-ylmethyl)-(4-phenyl-butyl)-amine]
8.05 nM | c1ccc(CNCC2COc3ccc4nocc4c3O2)cc1 (stereo not drawn) [Example 1, Benzyl-(-7,8-dihydro-2,6,9-trioxa-3-aza-cyclopenta[a]naphthalen-8-ylmethyl)-amine]
4.8 nM | c1ccc2c(CCCNCC3COc4ccc5nocc5c4O3)c[nH]c2c1 (stereo not drawn) [Example 6, 2,3-Dihydro-N-[3-(1H-indol-3-yl)propyl]-1,4-dioxino[2,3-e][2,1]benzisoxazole-2-methanamine]

Second part, the molecule before the results:

Compound | IC50
C1=C(c2c[nH]c3ccccc23)CCN(CC2COc3ccc4nocc4c3O2)C1 (stereo not drawn) [Example 3, 8-[4-(1H-Indol-3-yl)-3,6-dihydro-2H-pyridin-1-ylmethyl]-7,8-dihydro-2,6,9-trioxa-3-aza-cyclopenta[a]naphthalene] | 350 nM
Fc1ccc2[nH]cc(CC3CCN(CC4COc5ccc6nocc6c5O4)CC3)c2c1 (stereo not drawn) [Example 4, 8-[4-(5-Fluoro-1H-indol-3-ylmethyl)-piperidin-1-ylmethyl]-7,8-dihydro-2,6,9-trioxa-3-aza-cyclopenta[a]naphthalene] | 36.7 nM
O=C(c1ccc(F)cc1)C1CCN(CC2COc3ccc4nocc4c3O2)CC1 (stereo not drawn) [Example 5, [1-(7,8-Dihydro-2,6,9-trioxa-3-aza-cyclopenta[a]naphthalen-8-ylmethyl)-piperidin-4-yl]-(4-fluoro-phenyl)-methanone] | 32.4 nM
c1ccc2c(c1)CCN(CC1COc3ccc4nocc4c3O1)C2 (stereo not drawn) [Example 2, 8-(3,4-Dihydro-1H-isoquinolin-2-ylmethyl)-7,8-dihydro-2,6,9-trioxa-3-aza-cyclopenta[a]naphthalene] | 58.8 nM

tested on: dopamine receptors; experiment: Reduction of mouse locomotor activity (functional antagonism of dopamine receptors in vivo); conditions: sc; male CF-1 mice; horizontal activity counts 10 to 20 minutes after dosing
Protocol: The antipsychotic activity of the compounds of the invention was established by a determination of functional antagonism of dopamine receptors in vivo, specifically the compounds' ability to reduce mouse locomotor activity according to the method of Martin and Bendensky, J. Pharmacol. Exp. Therap. 229:706-711, 1984, in which mice (male, CF-1, Charles River, 20-30 g) were injected with vehicle or various doses of each drug and locomotor activity was measured for 30 minutes using automated infrared activity monitors (Omnitech—8×8 inch open field) located in a darkened room. ED50's were calculated from the horizontal activity counts collected from 10 to 20 minutes after dosing using a nonlinear regression analysis with inverse prediction.

Compound | ED50 for reduction of mouse locomotor activity
C1=C(c2c[nH]c3ccccc23)CCN(CC2COc3ccc4nocc4c3O2)C1 (stereo not drawn) [Example 3, 8-[4-(1H-Indol-3-yl)-3,6-dihydro-2H-pyridin-1-ylmethyl]-7,8-dihydro-2,6,9-trioxa-3-aza-cyclopenta[a]naphthalene] | ≥ 50 mg/kg
